Results as given in patent US10092648B2, “Selective glucagon-like-peptide-2 (GLP-2) analogues” (Zealand Pharma A/S, priority 2006, dated 2018).

Assays:
[1] = amino acid side-chain; defined by W. D. Stein 1967; cited from earlier work
male C57BL mice [2] = experiment: In vivo stimulation of intestinal growth, 800 nmol/kg (Example 10); design: key to Small intestine-colon sensitivity index: (SI/Colon) of compound divided by (SI/Colon) of reference GLP-2; settings: 800 nmol/kg s.c. once daily for 3 days; for Colon: colon mass relative to BW, % vs. [Gly2]GLP-2; for SI (% vs. [Gly2]GLP-2: small intestine mass relative to BW, [Gly2]GLP-2 = 100%
Description: Individual groups (n=6-10) of mice were given 800 nmol/kg of each compound, s.c, once daily for three consecutive days. For comparison purposes other groups of animals were given either an equimolar dose of [[…]]GLP-2 (ZP1559) or vehicle (phosphate buffered saline, pH 7.4) in the same dosing regimen Twenty-four hours after the last dose of compound had been given the mice were sacrificed and the small intestine (from the pylorus to the cecum) and the colon (intestine distal to cecum) was emptied and weighed. To correct for slight difference in body weight (BW), the organ mass of the small intestine (SI) and colon were expressed relative to BW. The non-selective reference compound [[…]]GLP-2 has been reported to stimulate gastrointestinal growth in both esophagus, stomach, small intestine and colon and to evaluate differences in growth pattern induced by compounds, the small intestine-colon sensitivity index of compound X was calculated as: […]

male C57BL mice [3] = experiment: In vivo stimulation of intestinal growth, 200 nmol/kg (Example 11); settings: for Sensitivity index Si/Colon: relative to 1559
Description: The ability of further compounds to selectively stimulate small intestinal mass, relative to colon mass was determined in male C57BL mice. A similar protocol was used to that described above in Example 10 except that 200 nmol/kg of each compound was administered per day. Thus, individual groups (n=6-10) of mice were given 200 nmol/kg of each compound, s.c, once daily for three consecutive days. Other groups of animals were given either an equimolar dose of [[…]]GLP-2 (reference compound) or vehicle (phosphate buffered saline, pH 7.4; negative controls) in the same dosing regimen. Twenty-four hours after the last dose of compound the mice were sacrificed and the stomach, small intestine and the colon emptied and weighed.

male C57BL mice [4] = experiment: In vivo stimulation of stomach growth, 200 nmol/kg (Example 12)
Description: The effects of the test compounds according to the invention were determined based on the ability of the peptides to selectively increase stomach mass, relative to vehicle control. The ability of the present compounds (ZP2395, ZP2396, ZP2400, ZP2412, ZP2394 and ZP2401) to selectively stimulate stomach mass, relative to colon mass was determined in male C57BL mice. Individual groups (n=6-10) of mice were given 200 nmol/kg of each compound, s.c, once daily for three consecutive days. For comparison purposes other groups of animals were given either an equimolar dose of [[…]]GLP-2 or vehicle (phosphate buffered saline, pH 7.4) in the same dosing regimen. Twenty-four hours after the last dose of compound had been given the mice were sacrificed and the stomach and small intestine (from the pylorus to the ileocaecal junction) emptied and weighed. To correct for slight difference in body weight (BW), the organ mass of the stomach is presented relative to BW. […] To evaluate the differential growth pattern induced by ZP compounds, compared to [[…]]GLP-2, on the stomach, the stomach-colon sensitivity index of compound X was calculated as: (Stomach/Colon)x/Stomach/(Colon)[[…]]GLP-2% Compounds with a stomach/colon sensitivity greater than or equal to 1.05 were considered relatively selective for the stomach.

[5] = colon weight relative to body weight, relative to ZP1559
[6] = small intestine weight relative to body weight, relative to ZP1559
[7] = 200 nmol/kg s.c. once daily for 3 days
[8] = 200 nmol/kg s.c. once daily for 3 days, relative to 1559

| Compound | Colon-BW, compared to 1559 in % (male C57BL mice [3]; [5]) | SI-BW, compared to 1559 in % (male C57BL mice [3]; [6]) | Sensitivity index Stomach/Co (male C57BL mice [4]; ratio Stomach-BW / Colon-BW) | Colon-BW, compared to 1559 in % (male C57BL mice [3]; [7]) | SI-BW, compared to 1559 in % (male C57BL mice [3]; [7]) | Sensitivity index Si/Colon (male C57BL mice [3]; [7]) | Sto-BW, compared to 1559 in % (male C57BL mice [4]; [7]) | Sensitivity index Stomach/Co (male C57BL mice [4]; [8]) | Organ selectivity (FIG. 8, unselective compounds) (male C57BL mice [3]; [7]) | further results |
| --- | --- | --- | --- | --- | --- | --- | --- | --- | --- | --- |
| NCC(=O)O [Gly] | – | – | – | – | – | – | – | – | – | HBP for the individual amino acids [1]: 0 |
| O=C(O)[C@@H]1CCCN1 [Pro] | – | – | – | – | – | – | – | – | – | HBP for the individual amino acids [1]: 0 |
| CC(C)C[C@H](N)C(=O)O [Leu] | – | – | – | – | – | – | – | – | – | HBP for the individual amino acids [1]: 0 |
| N[C@@H](CO)C(=O)O [Ser] | – | – | – | – | – | – | – | – | – | HBP for the individual amino acids [1]: 2 |
| N[C@@H](Cc1ccccc1)C(=O)O [Phe] | – | – | – | – | – | – | – | – | – | HBP for the individual amino acids [1]: 0 |
| H-[Gly2]hGLP-2-OH (H-HGDGSFSDEMNTILDNLAARDFINWLIQTKITD-OH) [[Gly2]GLP-2, GLP-2 with alanine in position 2 replaced with glycine, reference compound] | – | – | – | – | – | – | – | – | – | Small intestine-colon sensitivity index (male C57BL mice [2]; (SI/Colon)x/(SI/Colon)[Gly2]GLP-2): 1.00 ± 0.02; Colon (male C57BL mice [2]): 100 ± 2%; SI (% vs. [Gly2]GLP-2 (male C57BL mice [2]): 100 ± 1% |
| H-HGEGSFSSELSTILDALAARDFIAWLIATKITDK-OH [ZP2242] | 106.6% | 111.7% | 0.93 | – | – | – | – | – | – | Colon-BW, compared to 1559 in % (male C57BL mice [2]): 106.6%; Preferential stimulation of epithelial growth in the small intestine (summary) (male C57BL mice [2]): preferentially stimulating epithelial growth in the small intestine; SI-BW, compared to 1559 in % (male C57BL mice [2]): 111.7%; Sto-BW, compared to 1559 in % (male C57BL mice [2]): 99.6%; Sensitivity index Si/Colon (male C57BL mice [2]; relative to 1559): 1.05; Sensitivity index Stomach/Co (male C57BL mice [2]; relative to 1559): 0.93; Colon (male C57BL mice [2]): 107 ± 3%; SI (% vs. [Gly2]GLP-2 (male C57BL mice [2]): 111 ± 2%; Sensitivity index Si/Co (male C57BL mice [3]; ratio SI-BW / Colon-BW): 1.05; Stomach-BW, compared to 1559 in % (male C57BL mice [4]; stomach weight relative to body weight, relative to ZP1559): 99.6% |
| H-HGEGSFSDELKTILEKLAAKDFIKWLIKTKITDKKKKKK-NH2 [ZP2395] | 97% | 98% | 1.16 | 97% | 98% | 1.01 | 113% | 1.16 | – | Preferential stimulation of epithelial growth in the stomach (summary) (male C57BL mice [4]; [7]): preferentially stimulating epithelial growth in the stomach; Selectivity for stomach mass relative to colon mass (FIG. 7) (male C57BL mice [4]; [7]): selectively increase stomach mass, relative to colon mass |
| H-HGEGSFSDELETILEELAAEDFIEWLIETKITDKKKKKK-NH2 [ZP2378] | – | – | – | 97% | 91% | 0.94 | 94% | 0.97 | unselective for the small intestine, colon or stomach | – |
| H-HGEGSFSDELFTILEFLAASDFISWLISTKITD-NH2 [ZP2401] | 88% | 98% | 1.22 | 88% | 98% | 1.11 | 107% | 1.22 | – | Preferential stimulation of epithelial growth in the stomach (summary) (male C57BL mice [4]; [7]): preferentially stimulating epithelial growth in the stomach; Selectivity for stomach mass relative to colon mass (FIG. 7) (male C57BL mice [4]; [7]): selectively increase stomach mass, relative to colon mass |
| H-HGEGSFSDELATILEALAAADFIAWLISTKITDKKKKKK-NH2 [ZP2384] | 118% | 128% | 0.85 | 118% | 128% | 1.08 | 100% | 0.85 | – | Preferential stimulation of epithelial growth in the small intestine (summary) (male C57BL mice [3]; [7]): preferentially stimulating epithelial growth in the small intestine; Selectivity for small intestinal mass relative to colon mass (FIG. 6) (male C57BL mice [3]; [7]): selectively increase small intestinal mass, relative to colon mass |
| H-HGEGSFSDELATILESLAAADFIAWLIATKITDKKKKKK-NH2 [ZP2415] | – | – | – | 106% | 106% | 1.00 | 100% | 0.94 | unselective for the small intestine, colon or stomach | – |
| H-HGEGSFSDELATILESLAASDFISWLISTKITD-NH2 [ZP2399] | 103% | 119% | 1.12 | 103% | 119% | 1.16 | 115% | 1.12 | – | Preferential stimulation of epithelial growth in the small intestine (summary) (male C57BL mice [3]; [7]): preferentially stimulating epithelial growth in the small intestine; Selectivity for small intestinal mass relative to colon mass (FIG. 6) (male C57BL mice [3]; [7]): selectively increase small intestinal mass, relative to colon mass |
| H-HGEGSFSDELSTILEALAASDFISWLISTKITDKKKKKK-NH2 [ZP2385] | 95% | 110% | 0.98 | 95% | 110% | 1.16 | 93% | 0.98 | – | Preferential stimulation of epithelial growth in the small intestine (summary) (male C57BL mice [3]; [7]): preferentially stimulating epithelial growth in the small intestine; Selectivity for small intestinal mass relative to colon mass (FIG. 6) (male C57BL mice [3]; [7]): selectively increase small intestinal mass, relative to colon mass |
| H-HGEGSFSDELNTILESLAASDFISWLISTKITDKKKKKK-NH2 [ZP2382] | – | – | – | 106% | 103% | 0.97 | 101% | 0.95 | unselective for the small intestine, colon or stomach | – |
| H-HGEGSFSDELSTILEALAAADFIAWLIATKITDKKKKKK-NH2 [ZP2404] | – | – | – | 115% | 114% | 0.99 | 103% | 0.90 | unselective for the small intestine, colon or stomach | – |
| H-HGEGSFSDELLTILELLAALDFILWLILTKITDKKKKKK-NH2 [ZP2424] | – | – | – | 98% | 86% | 0.88 | 91% | 0.93 | unselective for the small intestine, colon or stomach | – |
| H-HGEGSFSDELATILEALAAADFIAWLIATKITDKKKKKK-NH2 [ZP2402] | – | – | – | 113% | 110% | 0.97 | 102% | 0.90 | unselective for the small intestine, colon or stomach | – |
| H-HGEGSFSDELATI LEALAASDFIAWLIATKITDKKKKKK-NH2 [ZP2423] | 109% | 123% | 0.86 | 109% | 123% | 1.13 | 94% | 0.86 | – | Preferential stimulation of epithelial growth in the small intestine (summary) (male C57BL mice [3]; [7]): preferentially stimulating epithelial growth in the small intestine; Selectivity for small intestinal mass relative to colon mass (FIG. 6) (male C57BL mice [3]; [7]): selectively increase small intestinal mass, relative to colon mass |
| H-HGEGSFSDELSTILESLAASDFISWLISTKITDKKKKKK-NH2 [ZP2380] | 102% | 108% | 0.96 | 102% | 108% | 1.06 | 98% | 0.96 | – | Preferential stimulation of epithelial growth in the small intestine (summary) (male C57BL mice [3]; [7]): preferentially stimulating epithelial growth in the small intestine; Selectivity for small intestinal mass relative to colon mass (FIG. 6) (male C57BL mice [3]; [7]): selectively increase small intestinal mass, relative to colon mass |
